# ChEMBL document CHEMBL1138613, “1,5-Benzodiazepine inhibitors of HCV NS5B polymerase” (Bioorg Med Chem Lett, 2009)
# Assays:
# Hepatitis C virus [1] = experiment: Inhibition of HCV 1b J4 recombinant NS5B Cdelta 21 polymerase overexpressed in Escherichia coli BL21 (DE3) assessed as [alpha33P]UTP incorporation by scintillation proximity analysis; set-up: species or system Hepatitis C virus subtype 1b
# Hepatitis C virus [2] = experiment: Antiviral activity against HCV 1b in human HuH7cells by luciferase reporter replicon assay; format: functional, organism-based, Hepacivirus hominis; details: genotype 1b, Huh-7
# [3] = Inhibition of HCV NS5B polymerase; set-up: species or system Hepacivirus hominis
# [4] = Cytotoxicity against human HuH7 cells after 5 days by ATPlite luminescence assay; format: cell-based, Huh-7
# [5] = Apparent permeability from apical to basolateral side of human Caco-2 cells; format: ADME, cell-based
# [6] = Selectivity index, ratio of CC50 for human HuH7 cells to EC50 for HCV 1b in human HuH7cells; format: functional, Huh-7
IC50 [3] [nM],SMILES,IC50 (Hepatitis C virus [1]) [nM],EC50 (Hepatitis C virus [2]) [nM],CC50 at 120 h [4] [nM],Papp A→B [5] [×10⁻⁶ cm/s],Selectivity Index [6]
,CC(=O)N1c2cccc(O)c2NC2=C(C(=O)CC(C)(C)C2)C1c1cn(C)c2ccccc12 (stereo unspecified),13000,> 32000,,,
30,O=C(O)/C(=C/c1ccc(Oc2c(F)cccc2Br)cc1)NC(=O)c1ccccc1,,,,,
100,O=C(O)/C(=C/c1ccc(Oc2ccccc2Br)cc1)NC(=O)c1ccccc1,,,,,
,CC(=O)N1c2ccccc2NC2=C(C(=O)CC(C)(C)C2)C1c1ccc(Cl)cc1Cl (stereo unspecified),3100,> 32000,,,
,CC1(C)CC(=O)C2=C(C1)Nc1c(O)cccc1N(C(=O)c1nccs1)C2c1ccc(OCc2ccccc2)cc1F (stereo unspecified),111,1700,19000,,
,CC1(C)CC(=O)C2=C(C1)Nc1c(O)cccc1N(C(=O)c1ccccn1)C2c1ccc(OCc2ccccc2)cc1F (stereo unspecified),51,360,15000,,
,CC(=O)N1c2cccc(O)c2NC2=C(C(=O)CC(C)(C)C2)C1c1ccc(Oc2ccccc2Br)cc1Cl (stereo unspecified),100,7100,,,
,Cc1cccc(C(=O)N2c3cccc(O)c3NC3=C(C(=O)CC(C)(C)C3)[C@H]2c2ccc(OCc3ccccc3)cc2F)n1,> 11000,5700,18000,,
,CC(=O)N1c2cccc(O)c2NC2=C(C(=O)CC(C)(C)C2)C1c1ccc(OCc2ccccc2)cc1Cl (stereo unspecified),40,1500,15000,,
,Cc1cccc(C(=O)N2c3cccc(O)c3NC3=C(C(=O)CC(C)(C)C3)C2c2ccc(OCc3ccccc3)cc2F)n1 (stereo unspecified),70,500,18000,,
,CC(=O)N1c2ccncc2NC2=C(C(=O)CC(C)(C)C2)C1c1ccc(Cl)cc1Cl (stereo unspecified),510,> 32000,,,
,CC1(C)CC(=O)C2=C(C1)Nc1c(O)cccc1N(C(=O)c1cccc(F)n1)C2c1ccc(OCc2ccccc2)cc1F (stereo unspecified),77,860,> 32000,,
,Cc1nc(C(=O)N2c3cccc(O)c3NC3=C(C(=O)CC(C)(C)C3)C2c2ccc(OCc3ccccc3)cc2F)c(C)o1 (stereo unspecified),79,570,28000,,
,Cc1nc(C(=O)N2c3cccc(O)c3NC3=C(C(=O)CC(C)(C)C3)[C@H]2c2ccc(OCc3ccccc3)cc2F)c(C)o1,27000,3600,13000,,
,Cc1nc(C(=O)N2c3cccc(O)c3NC3=C(C(=O)CC(C)(C)C3)C2c2ccc(OCc3ccccc3)cc2F)cs1 (stereo unspecified),143,970,> 32000,,
,CC(=O)N1c2cccc(C)c2NC2=C(C(=O)CC(C)(C)C2)C1c1ccc(Cl)cc1Cl (stereo unspecified),4780,14600,,,
,Cc1cccc(C(=O)N2c3cccc(O)c3NC3=C(C(=O)CC(C)(C)C3)[C@@H]2c2ccc(OCc3ccccc3)cc2F)n1,89,400,21000,11.6,50
,CC(=O)N1c2ncncc2NC2=C(C(=O)CC(C)(C)C2)C1c1ccc(Cl)cc1Cl (stereo unspecified),510,> 32000,,,
,Cc1cc(OCc2ccccc2)ccc1C1C2=C(CC(C)(C)CC2=O)Nc2c(O)cccc2N1C(=O)C(C)C (stereo unspecified),124,1600,15000,,
,CC(=O)N1c2cccc(O)c2NC2=C(C(=O)CC(C)(C)C2)C1c1ccc(Oc2ccccc2)cc1Cl (stereo unspecified),160,9900,,,
,CC(=O)N1c2ncnc(O)c2NC2=C(C(=O)CC(C)(C)C2)C1c1ccc(Cl)cc1Cl (stereo unspecified),> 32000,> 32000,,,
,CC(=O)N1c2ncccc2NC2=C(C(=O)CC(C)(C)C2)C1c1ccc(Cl)cc1Cl (stereo unspecified),8040,> 32000,,,
,CC(=O)N1c2cccc(O)c2NC2=C(C(=O)CC(C)(C)C2)C1c1ccccn1 (stereo unspecified),> 32000,> 32000,,,
,CC1(C)CC(=O)C2=C(C1)Nc1c(O)cccc1N(C(=O)c1cccc(Cl)n1)C2c1ccc(OCc2ccccc2)cc1F (stereo unspecified),108,690,13000,,
,CC(=O)N1c2cccc(C#N)c2NC2=C(C(=O)CC(C)(C)C2)C1c1ccc(Cl)cc1Cl (stereo unspecified),6970,15400,,,
,CC1(C)CC(=O)C2=C(C1)Nc1c(O)cccc1N(C(=O)c1cscn1)C2c1ccc(OCc2ccccc2)cc1F (stereo unspecified),39,760,29000,,

IC50 [3] [nM],SMILES,IC50 (Hepatitis C virus [1]) [nM],EC50 (Hepatitis C virus [2]) [nM],CC50 at 120 h [4] [nM],Papp A→B [5] [×10⁻⁶ cm/s],Selectivity Index [6]
,CC(=O)N1c2cccc(O)c2NC2=C(C(=O)CC(C)(C)C2)C1c1ccc(Oc2c(F)cccc2Br)cc1Cl (stereo unspecified),120,6300,,,
,Cc1nc(C(=O)N2c3cccc(O)c3NC3=C(C(=O)CC(C)(C)C3)C2c2ccc(OCc3ccccc3)cc2F)co1 (stereo unspecified),63,1600,29000,,
,CC(C)C(=O)N1c2cccc(O)c2NC2=C(C(=O)CC(C)(C)C2)C1c1ccc(OCc2ccccc2)cc1F (stereo unspecified),123,1300,14000,,
,CC1(C)CC(=O)C2=C(C1)Nc1c(O)cccc1N(C(=O)c1cccnc1)C2c1ccc(OCc2ccccc2)cc1F (stereo unspecified),109,2300,20000,,
,CC(C)C(=O)N1c2cccc(O)c2NC2=C(C(=O)CC(C)(C)C2)C1c1ccc(OCc2ccccc2)cc1Cl (stereo unspecified),154,1500,17000,,
17000,O=C(O)/C(=C/c1ccc(Oc2ccccc2)cc1)NC(=O)c1ccccc1,,,,,
,CC(=O)N1CC2=C(CC(C)(C)CC2=O)Nc2c(O)cccc21,> 32000,> 32000,,,
,Cc1cc(C(=O)N2c3cccc(O)c3NC3=C(C(=O)CC(C)(C)C3)C2c2ccc(OCc3ccccc3)cc2F)no1 (stereo unspecified),120,1800,45000,,
,Cc1cc(C(=O)N2c3cccc(O)c3NC3=C(C(=O)CC(C)(C)C3)C2c2ccc(OCc3ccccc3)cc2F)nn1C (stereo unspecified),50,1000,25000,,
,CC(=O)N1c2cccc(O)c2NC2=C(C(=O)CC(C)(C)C2)[C@@H]1c1ccc(Cl)cc1Cl,,2420,,,
,CC(=O)N1c2cccc(O)c2NC2=C(C(=O)CC(C)(C)C2)C1c1nccn1C (stereo unspecified),> 32000,> 32000,,,
,CC(=O)N1c2ccccc2NC2=C(C(=O)CC(C)(C)C2)[C@@H]1c1ccc(OCc2ccccc2)c(Cl)c1,1000,,,,
,CC(=O)N1c2ccccc2NC2=C(C(=O)CC(C)(C)C2)C1c1ccc(OCc2ccccc2)cc1Cl (stereo unspecified),900,2300,,,
,CC1(C)CC(=O)C2=C(C1)Nc1c(O)cccc1N(C(=O)c1ccncn1)C2c1ccc(OCc2ccccc2)cc1F (stereo unspecified),60,730,> 32000,,
,CC(=O)N1c2cccc(O)c2NC2=C(C(=O)CC(C)(C)C2)C1c1ccc(Cl)cc1Cl (stereo unspecified),100,3000,,,
,CC1(C)CC(=O)C2=C(C1)Nc1c(O)cccc1N(C(=O)c1ccco1)C2c1ccc(OCc2ccccc2)cc1F (stereo unspecified),75,2200,16000,,
,Cc1nc(C(=O)N2c3cccc(O)c3NC3=C(C(=O)CC(C)(C)C3)[C@@H]2c2ccc(OCc3ccccc3)cc2F)c(C)o1,29,270,28000,10.9,100
,CC(=O)N1c2cccc(O)c2NC2=C(C(=O)CC(C)(C)C2)C1c1ccco1 (stereo unspecified),21000,43000,,,
,CC(C)C(=O)N1c2cccc(O)c2NC2=C(C(=O)CC(C)(C)C2)C1c1ccc(OCc2ccccc2)cc1Br (stereo unspecified),87,2400,12000,,
,CC1(C)CC(=O)C2=C(C1)Nc1c(O)cccc1N(C(=O)c1ncn[nH]1)C2c1ccc(OCc2ccccc2)cc1F (stereo unspecified),21,2400,> 32000,,
,CC(=O)N1c2cccc(O)c2NC2=C(C(=O)CC(C)(C)C2)[C@H]1c1ccc(Cl)cc1Cl,14400,14500,,,
,CC(=O)N1c2cccc(O)c2NC2=C(C(=O)CC(C)(C)C2)C1c1sccc1OCc1ccccc1 (stereo unspecified),180,11000,,,
,CC1(C)CC(=O)C2=C(C1)Nc1c(O)cccc1N(C(=O)c1ccncc1)C2c1ccc(OCc2ccccc2)cc1F (stereo unspecified),86,3300,76000,,
,CC(=O)N1c2cccc(O)c2NC2=C(C(=O)CC(C)(C)C2)C1C1CCCCC1 (stereo unspecified),22000,740,,,
,CC(=O)N1c2cccc(Br)c2NC2=C(C(=O)CC(C)(C)C2)C1c1ccc(Cl)cc1Cl (stereo unspecified),6120,7800,,,
